For assay [1], the target named is T1, recombinant human ALK5 (TGF-βR1) protein (Homo sapiens, UniProt P36897).
T1 construct: purchased Life Technologies PR9075A
T1 sequence (P36897 34-503): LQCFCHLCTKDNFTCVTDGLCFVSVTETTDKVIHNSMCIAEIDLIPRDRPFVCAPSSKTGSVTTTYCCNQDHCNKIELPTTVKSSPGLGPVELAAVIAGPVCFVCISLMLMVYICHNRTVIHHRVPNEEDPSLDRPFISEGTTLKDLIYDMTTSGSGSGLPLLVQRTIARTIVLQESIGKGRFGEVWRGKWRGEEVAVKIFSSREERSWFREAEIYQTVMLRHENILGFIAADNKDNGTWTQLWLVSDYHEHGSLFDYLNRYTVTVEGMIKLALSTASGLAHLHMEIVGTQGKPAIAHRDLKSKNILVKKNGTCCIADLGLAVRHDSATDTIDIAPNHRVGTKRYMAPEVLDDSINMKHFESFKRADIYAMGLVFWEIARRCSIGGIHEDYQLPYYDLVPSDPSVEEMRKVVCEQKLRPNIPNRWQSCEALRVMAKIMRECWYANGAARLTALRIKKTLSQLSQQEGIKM
As to the kind of experiment: Biochemical ALK5 (TGF-βR1) assay to measure pKi (LANCE Ultra ULight kinase assay). The conditions noted are these: apparent pKi from pIC50 by Cheng-Prusoff, read-out: ALK5 pKi (converted). The gist of the method: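 After a 60 min room-temperature preincubation of ALK5 with compound, phosphorylation proceeds 60 min at 37 °C on ATP addition (125 μM as 5× stock). Detection: Eu-labelled phospho-Thr1342 Topo IIα antibody in EDTA buffer, pH 7.0; emission 665 nm.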
For orientation: TR-FRET usually uses a lanthanide donor and a delayed reading to cut background.

For assay [2], the system named is TGF-β-stimulated SMAD3 phosphorylation in BEAS-2B cells. As to the kind of experiment: Cellular ALK5 potency assay, inhibition of TGF-β stimulated pSMAD3 formation in BEAS-2B cells. In kind it is cell-based. Conditions: Homo sapiens; inhibition of TGF-β stimulated pSMAD3 formation, BEAS-2B cells; read-out: BEAS2B pIC50 (converted). In outline:
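Cells seeded overnight; rinse with supplemented HBSS; compound 1 h at 37 °C; TGF-β 10 ng/mL final, 30 min; lyse; AlphaLISA acceptor and detector beads 2 h apart, read next day. Potency expressed as pIC50.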

The structures appear in SMILES notation.

This note sets out measurements from patent US11590116B2 (THERAVANCE BIOPHARMA R&D IP, LLC, priority 2019, dated 2023).

As for `CNCCn1cc(-c2cnc3ccc(-c4c(-c5cccc(C)n5)nn5c4CNCC5)cc3c2)cn1` [Compound 327, N-methyl-2-[4-[6-[2-(6-methyl-2-pyridyl)-4,5,6,7-tetrahydropyrazolo[1,5-a]pyrazin-3-yl]-3-quinolyl]pyrazol-1-yl]ethanamine], the Ki in assay [1] was 0.0398 to 0.316 nM. The IC50 in assay [2] is 200 to 1260 nM.
With `Cc1cccc(-c2[nH]cnc2-c2ccc3ncc(C4=CC[C@H](N)CC4)cc3c2)n1` [Compound 81, (1R)-4-[6-[5-(6-methyl-2-pyridyl)-1H-imidazol-4-yl]-3-quinolyl]cyclohex-3-en-1-amine], in assay [1], the Ki was < 0.0316 nM. Further, the IC50 in assay [2] was < 20 nM.
With `Cc1cccc(-c2[nH]cnc2-c2ccc3ncc(-c4nc(C(=O)O[C@H]5CCNC5)cs4)cc3c2)n1` [Compound 748, (S)-pyrrolidin-3-yl 2-(6-(5-(6-methylpyridin-2-yl)-1H-imidazol-4-yl)quinolin-3-yl)thiazole-4-carboxylate], the Ki in assay [1] is 0.0398 to 0.316 nM. For the same molecule, the IC50 in assay [2] was 25.1 to 158 nM.
As for `Cc1cccc(-c2nnn(Cc3ccccc3)c2-c2ccc3ncc(-c4cnn(C5CCCNC5)c4)cc3c2)n1` (stereo not drawn) [Compound 27, 6-[3-benzyl-5-(6-methyl-2-pyridyl)triazol-4-yl]-3-[1-(3-piperidyl)pyrazol-4-yl]quinoline], the Ki in assay [1] was 0.0398 to 0.316 nM. In addition, the IC50 in assay [2] is 25.1 to 158 nM.
Consider `Cc1nc(-c2n[nH]cc2-c2ccc3ncc(-c4cnc5n4CCN5)cc3n2)ccc1F` [Compound 332, 7-(6,7-dihydro-5H-imidazo[1,2-a]imidazol-3-yl)-2-[3-(5-fluoro-6-methyl-2-pyridyl)-1H-pyrazol-4-yl]-1,5-naphthyridine], for which the Ki in assay [1] is < 0.0316 nM. In assay [2], the IC50 was 25.1 to 158 nM.
As for `Cc1cccc(-c2n[nH]cc2-c2ccc3ncc(NC(C)(C)CN4CCN(C)CC4)cc3n2)n1` [Compound 556, N-[1,1-dimethyl-2-(4-methylpiperazin-1-yl)ethyl]-6-[3-(6-methyl-2-pyridyl)-1H-pyrazol-4-yl]-1,5-naphthyridin-3-amine], in assay [1], the Ki is 0.398 to 3.16 nM. In addition, in assay [2], the IC50 is 25.1 to 158 nM.
Take `Cc1cccc(-c2[nH]ncc2-c2ccc3ncc(C(=O)OC[C@@H]4CCCCN4)cc3c2)n1` [Compound 1205, [(2S)-2-piperidyl]methyl 6-[5-(6-methyl-2-pyridyl)-1H-pyrazol-4-yl]quinoline-3-carboxylate]: the Ki in assay [1] was 0.0398 to 0.316 nM. Besides, the IC50 in assay [2] is < 20 nM.
`Cc1cccc(-c2[nH]cnc2-c2ccc3ncc(N4CCN[C@@H](C(=O)O)C4)cc3c2)n1` [Compound 168, (2R)-4-[6-[5-(6-methyl-2-pyridyl)-1H-imidazol-4-yl]-3-quinolyl]piperazine-2-carboxylic acid]: in assay [1], the Ki is 0.0398 to 0.316 nM. In addition, the IC50 in assay [2] is 1580 to 10000 nM.
The like results for `Cc1cccc(-c2nc3ccccn3c2-c2ccc3ncc(N4CCNCC4)cc3n2)n1` [Compound 473, 2-[2-(6-methyl-2-pyridyl)imidazo[1,2-a]pyridin-3-yl]-7-piperazin-1-yl-1,5-naphthyridine] were, in that order, 0.0398 to 0.316 nM and 25.1 to 158 nM.
As to `Cc1cccc(-c2[nH]ncc2-c2ccc3ncc(C(=O)N(C)CCN4CCOCC4)cc3n2)n1` [Compound 182, N-methyl-6-[5-(6-methyl-2-pyridyl)-1H-pyrazol-4-yl]-N-(2-morpholinoethyl)-1,5-naphthyridine-3-carboxamide], in assay [1], the Ki is 3.98 to 31.6 nM. In addition, in assay [2], the IC50 is 200 to 1260 nM.
Regarding `Cc1cccc(-c2[nH]cnc2-c2ccc3ncc(N4CCC5(CCNC5)C4)cc3c2)n1` (stereo not drawn) [Compound 387, 3-(2,7-diazaspiro[4.4]nonan-2-yl)-6-[5-(6-methyl-2-pyridyl)-1H-imidazol-4-yl]quinoline], in assay [1], the Ki is < 0.0316 nM. Besides, in assay [2], the IC50 was 25.1 to 158 nM.
Regarding `Cc1cccc(-c2[nH]ncc2-c2ccc3nccc(C(=O)OC[C@H]4CCCCN4)c3c2)n1` [Compound 1095, [(2R)-2-piperidyl]methyl 6-[5-(6-methyl-2-pyridyl)-1H-pyrazol-4-yl]quinoline-4-carboxylate], the Ki in assay [1] is 0.398 to 3.16 nM. Besides, in assay [2], the IC50 was 25.1 to 158 nM.
